The values below come from PMC12095040, “GRK5 is required for adipocyte differentiation through ERK activation” (International Journal of Obesity (2005), 2024).

This assay has as its target GRK5 (Homo sapiens, UniProt P34947). Kind of assay: ADP-Glo luminescent kinase assay, casein substrate, […] ATP. Format: biochemical. A general note: ADP-Glo first removes unused ATP, then detects ADP through luciferase.

Structures are written as SMILES.

Sequence of GRK5 (P34947 whole entry): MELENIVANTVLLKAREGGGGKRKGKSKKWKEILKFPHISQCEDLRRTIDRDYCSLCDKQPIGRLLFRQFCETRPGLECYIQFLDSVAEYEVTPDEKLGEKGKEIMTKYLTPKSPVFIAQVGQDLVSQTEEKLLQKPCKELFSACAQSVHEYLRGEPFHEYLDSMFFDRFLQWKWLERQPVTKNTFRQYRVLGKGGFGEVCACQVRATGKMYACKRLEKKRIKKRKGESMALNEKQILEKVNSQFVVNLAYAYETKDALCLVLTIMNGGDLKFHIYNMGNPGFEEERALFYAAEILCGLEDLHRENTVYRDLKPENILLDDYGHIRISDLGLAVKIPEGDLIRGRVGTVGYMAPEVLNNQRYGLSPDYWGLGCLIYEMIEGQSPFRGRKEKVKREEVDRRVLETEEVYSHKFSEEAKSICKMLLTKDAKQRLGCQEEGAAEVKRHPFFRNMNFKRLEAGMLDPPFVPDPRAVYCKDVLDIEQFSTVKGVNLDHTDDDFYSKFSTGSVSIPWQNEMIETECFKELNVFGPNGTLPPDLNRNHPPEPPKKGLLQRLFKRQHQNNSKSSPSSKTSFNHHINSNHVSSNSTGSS

Consider `COc1cc(Nc2cc3c(cn2)nc(-c2ccco2)n3C)cc(OC)c1OC` [GRK5-IN-2], for which the midpoint of inhibition, the IC50, lay at 49.7 µM.
